Here are results for 52 compounds from PubChem BioAssay AID1996.

In brackets after ≈: the same amount, converted by molar mass.

The conditions of the data set: buffer; pH 7.4; 200.0 µM.
The kinetic solubility is the concentration staying in solution when a stock, usually in DMSO, is diluted into the medium. Consider `Cc1ccc2c(c1)N(CC(=O)Nc1nccs1)C(=O)CO2`, for which the kinetic solubility was found to be 1.3 µg/mL (≈ 4.29 µM).
In the case of `O=S(=O)(NC1=NCCC1)c1ccc(F)cc1F`, the kinetic solubility is greater than 39 µg/mL.
The same measure for `COc1ccccc1Oc1nc(-c2cccnc2)nc2ccccc12`: 2.1 µg/mL (≈ 6.38 µM); for `CC1CCC2(CC1)NC(=O)N(CC(=O)NCCc1ccccc1)C2=O` (configuration not stated): greater than 51.5 µg/mL.
The compound `COc1ccc(CCNC2CCCCCC2)cc1` yielded a solubility (kinetic) greater than 37.1 µg/mL.
Under `O=C(Nc1ccc2c(c1)OCCO2)C(=O)c1c[nH]c2ccccc12` stands less than 0.3 µg/mL.
The same measure for `CCC(CC)C(=O)c1c[nH]c(C(=O)NCc2cccs2)c1`: 4.4 µg/mL (≈ 14.5 µM); for `Cc1cc(Br)ccc1NC(=S)NCCc1ccccc1`: 8.6 µg/mL (≈ 24.6 µM); for `Cc1ccc(/C=C2/SC(=Nc3ccc(F)cc3)NC2=O)s1`: 0.8 µg/mL (≈ 2.51 µM).
The same measure for `CCOc1ccccc1Nc1nnc(SCC(=O)NC2CCS(=O)(=O)C2)s1` (configuration not stated): greater than 64.3 µg/mL; for `O=C(/C=C/c1cccs1)NC(=S)Nc1ccccc1`: 1.3 µg/mL (≈ 4.51 µM); for `O=C(Cc1ccc(Cl)cc1)NCC(=O)N1CCCCC1`: 39.7 µg/mL (≈ 135 µM).
Compound `CCc1nccn1Cc1cc(C=O)ccc1OC.Cl` showed a solubility (kinetic) greater than 42.1 µg/mL.
The same measure for `COc1cccc(NC(=O)COc2ccccc2)c1`: greater than 38.6 µg/mL; for `Cn1c(C2=C(O)CN(Cc3ccccc3)C2=N)nc2ccccc21`: greater than 47.8 µg/mL; for `O=S(=O)(c1ccccc1)c1nc(-c2ccccc2)oc1N1CCCC1`: 1.3 µg/mL (≈ 3.67 µM).
Take `O=C(CC(Cc1ccccc1)C(=O)O)Nc1ccccc1` (configuration not stated): the solubility (kinetic) is greater than 42.5 µg/mL.
The same measure for `CCOC(=O)CNC(=O)c1ccc(Br)s1`: greater than 43.8 µg/mL.
The same measure for `O=C(O)c1cc(Cl)nc2ccccc12`: greater than 31.1 µg/mL; for `Cc1cccc(C)c1NC(=O)Cc1cccs1`: greater than 36.8 µg/mL.
Under `Cc1cccnc1NC(=O)CCc1c[nH]c2ccccc12` stands greater than 41.9 µg/mL; under `Clc1ccc(-c2nc(-c3ccncc3)no2)c(Cl)c1`, less than 0.2 µg/mL; under `COCC(=O)Nc1ccc(S(=O)(=O)Nc2nccs2)cc1`, 47 µg/mL (≈ 144 µM).
Regarding `CCCOc1ccc(N/C=C/C(=O)c2ccc(OC)c(OC)c2)cc1`, the solubility (kinetic) is less than 0.7 µg/mL.
Under `COC(=O)c1ccc(C(=O)OC)c(NC(=O)CN2CCC(C)CC2)c1` stands 0.6 µg/mL (≈ 1.72 µM); under `COc1ccc(-n2cnc3sccc3c2=O)cc1`, 35.8 µg/mL (≈ 139 µM); under `CCc1ccccc1NC(=O)C1CCN(S(C)(=O)=O)CC1`, greater than 46.6 µg/mL.
Under `COc1cc(SC)ccc1C(=O)Nc1ccccn1` stands 9 µg/mL (≈ 32.8 µM).
For `O=C(Nc1cc(Cl)cc(Cl)c1)c1cccnc1`, the kinetic solubility is 17.6 µg/mL (≈ 65.9 µM).
The same measure for `CCOC(=O)c1ccc(S(=O)(=O)Nc2cc(S(=O)(=O)Nc3ccc(OC)cc3)ccc2O)cc1`: 72.8 µg/mL (≈ 144 µM).
Under `CCCSc1sc(C(=O)OC)c(-c2cccs2)c1C#N` stands less than 0.7 µg/mL; under `CN(C)c1ccc(CNS(=O)(=O)c2csc(C(N)=O)c2)cc1`, greater than 50.9 µg/mL; under `COc1ccc(/C=N/NC(=O)c2ccc[nH]2)cc1`, greater than 36.5 µg/mL.
Under `COc1ccc(-c2nc(N)ncc2-c2ccccc2OC)c(O)c1` stands 23.3 µg/mL (≈ 72.1 µM); under `COCC(C)NC(=O)COc1nncc2ccccc12` (configuration not stated), greater than 41.3 µg/mL; under `CCOC(=O)CN(C#N)c1nc(N(C)C)nc(N(C)C)n1`, 17.8 µg/mL (≈ 60.7 µM).
In turn, `Cc1ccc(NC(=O)CCN2CCC(C)CC2)cc1.Cl` came in with a kinetic solubility greater than 44.5 µg/mL.
With `Clc1ccc2c(NCc3cccs3)ncnc2c1`, the kinetic solubility was 4.5 µg/mL (≈ 16.3 µM).
The same measure for `O=C(O)c1cc([N+](=O)[O-])ccc1C(=O)Nc1cccc([N+](=O)[O-])c1`: greater than 49.7 µg/mL; for `OC(COc1ccc(Cl)cc1)CSc1ccccn1` (configuration not stated): 37.5 µg/mL (≈ 127 µM); for `COc1ccc(NC(=S)N(Cc2cccnc2)Cc2ccco2)cc1`: 44.8 µg/mL (≈ 127 µM).
On to `O=C(CCN1C(=O)COc2ccccc21)N1CCN(c2ccccc2)CC1`, for which the kinetic solubility is 47 µg/mL (≈ 129 µM).
In turn, `O=C(c1cc2ccccc2o1)N1CCN(c2ncccn2)CC1` returned a solubility (kinetic) greater than 46.3 µg/mL.
Under `COc1ccc(S(=O)(=O)NCCc2ccco2)cc1OC` stands greater than 46.7 µg/mL; under `CCCC(C)NC(=O)c1ccccc1SC` (configuration not stated), 34.1 µg/mL (≈ 144 µM).
In turn, `Cc1cccc(NC(=O)c2cc(C)nc3ccccc23)c1` registered a solubility (kinetic) of 0.7 µg/mL (≈ 2.53 µM).
The same measure for `COC(=O)CC(c1ccccc1F)N1Cc2ccccc2C1=O` (configuration not stated): greater than 47 µg/mL; for `Cc1ccc(C(=O)Nc2cccc(-c3nc4ncccc4o3)c2)cc1`: 1.3 µg/mL (≈ 3.95 µM); for `COc1ccc(NC(=O)O/N=C/c2ccncc2)cc1`: greater than 40.7 µg/mL.
Under `CCOc1ccc(C(NC(=O)CC)c2c(O)ccc3ccccc23)cc1` (configuration not stated) stands 2 µg/mL (≈ 5.72 µM).
The same measure for `O=C(NCCCl)c1ccc(OCc2ccccc2)cc1Cl`: 37 µg/mL (≈ 114 µM); for `O=C(NCc1cccs1)C1CC(c2ccc(Cl)cc2)=NO1` (configuration not stated): 1.3 µg/mL (≈ 4.05 µM).
